System: A II-infused rat
Assay: antihypertensive action in A II-infused rat model
Format: in vivo
Description: In accordance with their ability to antagonize angiotensin II, the compounds of this invention show antihypertensive action in the following A II-infused rat model. Rats are anesthetized with Dial-Urethane (0.60 mL/kg, ip) and the trachea cannulated with PE 240. Either one femoral artery and both femoral veins or the carotid artery and the corresponding jugular vein are cannulated with PE 50. If the jugular vein is cannulated, two cannulas are placed in the one vein. The initial portion of the duodenum (just distal to the stomach) is cannulated with PE 50 via a small midline incision. Arterial pressure and heart rate are measured from the arterial cannula. Ten to 15 min are allowed following surgery for stabilization of arterial pressure. Ganglion blockade is then produced by intravenous administration of mecamylamine at 3 mg/kg (1 mL/kg of a 3 mg/mL solution). Ganglion blockade causes a fall in arterial pressure of about 50 mmHg. Mecamylamine is given every 90 min throughout the remainder of the experiment. An A II infusion is then begun into the other venous cannula at 0.25 μg/kg/min (at 9.6 μL/min). The A II infusion returns arterial pressure to or slightly above the control level. Once arterial pressure has stabilized with the A II infusion, baseline values for means arterial pressure (MAP) and heart rate are taken. […]

For `CNC1(C)C2CCC(C2)C1(C)C` (centres unmarked) [mecamylamine], the “fall in arterial pressure on ganglion blockade” value (mecamylamine 3 mg/kg intravenous, before A II infusion, anesthetized rats) was “about 50 mmHg”.

For `FC(F)(F)c1nc2c(c(NCc3ccc(-c4ccccc4-c4nnn[nH]4)cc3)n1)CCCCC2.O.[K]` [Example 5, 6,7,8,9-tetrahydro-N-[[2'-(1H-tetrazol-5-yl)[1,1'-biphenyl]-4-yl]methyl]-2-(trifluoromethyl)-5H-cycloheptapyrimidin-4-amine potassium salt hydrate], the “average lowering of the A II dependent blood pressure” value (3 mg/kg id (intraduodenal), one half hour postadministration, ganglion-blocked A II-infused rats) was 45%.

— US5234936A, “Pyrimidocycloalkanes as a II antagonists” (American Home Products Corporation, priority 1991, dated 1993)
